Among the data in ChEMBL document CHEMBL4265896, “Design and synthesis of potent RSK inhibitors” (Bioorg Med Chem Lett, 2018) are IC50, solubility and efflux ratio values, retold here.

For orientation: pIC50 means the IC50 on a negative log10 scale, so that one unit is a factor of ten. A word on the solubility: it is how much of the substance goes into solution per volume. As usually defined, the efflux ratio is a quotient of directional permeabilities that is used to spot active efflux.

Series [1] has as its target T1, Ribosomal protein S6 kinase alpha-3 (Homo sapiens, UniProt P51812). As to the kind of experiment: Inhibition of RSK2 (unknown origin) assessed as reduction in YB1 […] phosphorylation.
The nature of series [2]: Solubility of the compound in PBS buffer of pH 7.0. It counts as physicochemical.
Series [3] concerns the target T1, Ribosomal protein S6 kinase alpha-3. As to the kind of experiment: Inhibition of RSK2 (unknown origin).
Series [4] addresses Fibroblast growth factor receptor 1 (Homo sapiens, UniProt P11362). The series can be described thus: Inhibition of FGFR1 (unknown origin).
Series [5] is described as follows: Efflux ratio of permeability of the compound in human Caco2 cells. In kind it is ADME, cell-based. Conditions: Caco-2.
Series [6] addresses Ribosomal protein S6 kinase beta-1 (Homo sapiens, UniProt P23443). The series can be described thus: Inhibition of RPS6KB1 (unknown origin).
Series [7] concerns the target Vascular endothelial growth factor receptor 2 (Homo sapiens, UniProt P35968). As to the kind of experiment: Inhibition of KDR (unknown origin).
Series [8] deals with Tyrosine-protein kinase JAK2 (Homo sapiens, UniProt O60674). As to the kind of experiment: Inhibition of JAK2 (unknown origin).
Tyrosine-protein kinase JAK2, sequence (O60674 whole entry): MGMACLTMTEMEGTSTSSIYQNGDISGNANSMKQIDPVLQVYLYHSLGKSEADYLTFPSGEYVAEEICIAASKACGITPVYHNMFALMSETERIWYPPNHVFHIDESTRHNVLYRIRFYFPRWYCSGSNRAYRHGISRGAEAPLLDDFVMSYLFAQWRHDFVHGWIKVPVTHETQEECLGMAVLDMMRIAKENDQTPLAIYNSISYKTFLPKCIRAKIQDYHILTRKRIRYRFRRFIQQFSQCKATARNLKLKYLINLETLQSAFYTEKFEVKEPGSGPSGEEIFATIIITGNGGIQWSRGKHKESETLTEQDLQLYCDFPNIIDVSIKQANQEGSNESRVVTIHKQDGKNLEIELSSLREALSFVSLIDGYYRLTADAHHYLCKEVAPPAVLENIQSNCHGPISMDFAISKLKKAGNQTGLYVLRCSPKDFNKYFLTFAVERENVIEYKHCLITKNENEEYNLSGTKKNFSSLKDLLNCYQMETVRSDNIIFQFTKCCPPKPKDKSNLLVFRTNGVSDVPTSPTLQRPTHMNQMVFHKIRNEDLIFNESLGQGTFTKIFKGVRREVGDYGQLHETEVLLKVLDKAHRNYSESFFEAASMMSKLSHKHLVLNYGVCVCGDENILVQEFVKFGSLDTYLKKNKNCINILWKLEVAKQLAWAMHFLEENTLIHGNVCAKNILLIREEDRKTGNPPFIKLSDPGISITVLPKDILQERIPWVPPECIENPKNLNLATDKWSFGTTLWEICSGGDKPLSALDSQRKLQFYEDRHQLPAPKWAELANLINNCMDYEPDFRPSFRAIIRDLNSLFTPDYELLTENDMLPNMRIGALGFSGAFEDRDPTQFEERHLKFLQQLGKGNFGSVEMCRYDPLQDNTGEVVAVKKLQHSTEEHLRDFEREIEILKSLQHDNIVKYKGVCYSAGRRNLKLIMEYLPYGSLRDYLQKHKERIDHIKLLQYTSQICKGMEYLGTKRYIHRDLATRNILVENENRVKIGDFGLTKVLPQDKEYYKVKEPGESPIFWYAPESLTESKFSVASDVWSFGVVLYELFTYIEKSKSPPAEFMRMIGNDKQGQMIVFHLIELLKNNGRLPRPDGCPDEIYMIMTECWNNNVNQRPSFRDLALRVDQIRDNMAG
Series [9] concerns the target Tyrosine-protein kinase JAK1 (Homo sapiens, UniProt P23458). As to the kind of experiment: Inhibition of JAK1 (unknown origin).
The target of series [10] is Fibroblast growth factor receptor 2 (Homo sapiens, UniProt P21802). As to the kind of experiment: Inhibition of FGFR2 (unknown origin).
For series [11], the target named is T2, Receptor-type tyrosine-protein kinase FLT3 (Homo sapiens, UniProt P36888).
T2 sequence (P36888 whole entry): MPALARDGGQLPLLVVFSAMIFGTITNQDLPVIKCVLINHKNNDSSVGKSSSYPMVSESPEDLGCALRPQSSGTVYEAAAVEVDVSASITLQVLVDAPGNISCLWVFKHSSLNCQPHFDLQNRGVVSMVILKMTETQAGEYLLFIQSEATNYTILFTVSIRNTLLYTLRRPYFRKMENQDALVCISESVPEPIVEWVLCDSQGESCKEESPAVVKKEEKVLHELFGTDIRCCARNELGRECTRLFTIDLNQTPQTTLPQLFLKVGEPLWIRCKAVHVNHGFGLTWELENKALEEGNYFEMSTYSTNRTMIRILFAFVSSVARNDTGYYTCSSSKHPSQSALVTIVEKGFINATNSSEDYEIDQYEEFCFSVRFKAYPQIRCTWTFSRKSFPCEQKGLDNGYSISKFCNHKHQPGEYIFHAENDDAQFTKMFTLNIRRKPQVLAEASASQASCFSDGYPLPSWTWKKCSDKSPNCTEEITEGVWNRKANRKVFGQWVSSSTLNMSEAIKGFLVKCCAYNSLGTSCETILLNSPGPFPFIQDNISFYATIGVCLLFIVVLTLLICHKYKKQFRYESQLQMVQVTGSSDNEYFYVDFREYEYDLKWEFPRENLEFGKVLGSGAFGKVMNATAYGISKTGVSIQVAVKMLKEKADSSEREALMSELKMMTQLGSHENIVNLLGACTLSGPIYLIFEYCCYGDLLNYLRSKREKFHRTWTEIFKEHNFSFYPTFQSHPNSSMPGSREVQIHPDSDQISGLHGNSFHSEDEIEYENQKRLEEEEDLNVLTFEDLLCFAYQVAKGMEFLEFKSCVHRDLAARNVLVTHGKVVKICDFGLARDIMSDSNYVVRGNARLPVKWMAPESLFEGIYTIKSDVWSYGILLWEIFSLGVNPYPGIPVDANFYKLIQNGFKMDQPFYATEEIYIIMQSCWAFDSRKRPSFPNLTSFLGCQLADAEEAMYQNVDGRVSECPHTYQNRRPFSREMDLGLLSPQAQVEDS
As to the kind of experiment: Inhibition of FLT3 (unknown origin).

Series [12] has as its target T3, Tyrosine-protein kinase receptor UFO (Homo sapiens, UniProt P30530).
T3 sequence (P30530 whole entry): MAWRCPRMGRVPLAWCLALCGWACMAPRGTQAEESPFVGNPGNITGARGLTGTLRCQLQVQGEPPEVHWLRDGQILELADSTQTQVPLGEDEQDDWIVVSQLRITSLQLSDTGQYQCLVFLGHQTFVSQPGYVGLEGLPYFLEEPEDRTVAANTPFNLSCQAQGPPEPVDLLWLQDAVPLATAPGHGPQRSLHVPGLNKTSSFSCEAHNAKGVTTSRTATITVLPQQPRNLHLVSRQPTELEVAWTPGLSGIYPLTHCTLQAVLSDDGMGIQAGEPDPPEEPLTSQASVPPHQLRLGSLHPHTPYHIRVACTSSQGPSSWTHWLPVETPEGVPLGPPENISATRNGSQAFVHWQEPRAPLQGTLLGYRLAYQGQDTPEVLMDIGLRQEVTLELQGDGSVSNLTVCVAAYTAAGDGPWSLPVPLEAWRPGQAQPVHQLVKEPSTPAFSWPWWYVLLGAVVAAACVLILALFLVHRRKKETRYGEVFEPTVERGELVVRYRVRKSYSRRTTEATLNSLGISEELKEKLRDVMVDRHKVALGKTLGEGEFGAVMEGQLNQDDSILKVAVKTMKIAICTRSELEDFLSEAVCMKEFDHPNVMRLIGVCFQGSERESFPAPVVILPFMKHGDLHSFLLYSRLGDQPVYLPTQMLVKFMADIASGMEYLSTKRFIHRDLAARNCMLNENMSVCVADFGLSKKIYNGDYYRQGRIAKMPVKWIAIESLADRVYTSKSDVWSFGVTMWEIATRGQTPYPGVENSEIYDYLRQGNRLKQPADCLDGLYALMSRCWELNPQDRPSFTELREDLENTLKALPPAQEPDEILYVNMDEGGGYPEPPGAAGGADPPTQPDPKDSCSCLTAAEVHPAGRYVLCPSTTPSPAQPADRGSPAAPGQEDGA
The series can be described thus: Inhibition of AXL (unknown origin).

For series [13], the target named is Proto-oncogene tyrosine-protein kinase receptor Ret (Homo sapiens, UniProt P07949). As to the kind of experiment: Inhibition of RET (unknown origin).

pIC50: −log10 of the molar value. ≈ marks a conversion by molar mass, not a printed value. Some results are limits rather than exact numbers.

T1 sequence (P51812 whole entry): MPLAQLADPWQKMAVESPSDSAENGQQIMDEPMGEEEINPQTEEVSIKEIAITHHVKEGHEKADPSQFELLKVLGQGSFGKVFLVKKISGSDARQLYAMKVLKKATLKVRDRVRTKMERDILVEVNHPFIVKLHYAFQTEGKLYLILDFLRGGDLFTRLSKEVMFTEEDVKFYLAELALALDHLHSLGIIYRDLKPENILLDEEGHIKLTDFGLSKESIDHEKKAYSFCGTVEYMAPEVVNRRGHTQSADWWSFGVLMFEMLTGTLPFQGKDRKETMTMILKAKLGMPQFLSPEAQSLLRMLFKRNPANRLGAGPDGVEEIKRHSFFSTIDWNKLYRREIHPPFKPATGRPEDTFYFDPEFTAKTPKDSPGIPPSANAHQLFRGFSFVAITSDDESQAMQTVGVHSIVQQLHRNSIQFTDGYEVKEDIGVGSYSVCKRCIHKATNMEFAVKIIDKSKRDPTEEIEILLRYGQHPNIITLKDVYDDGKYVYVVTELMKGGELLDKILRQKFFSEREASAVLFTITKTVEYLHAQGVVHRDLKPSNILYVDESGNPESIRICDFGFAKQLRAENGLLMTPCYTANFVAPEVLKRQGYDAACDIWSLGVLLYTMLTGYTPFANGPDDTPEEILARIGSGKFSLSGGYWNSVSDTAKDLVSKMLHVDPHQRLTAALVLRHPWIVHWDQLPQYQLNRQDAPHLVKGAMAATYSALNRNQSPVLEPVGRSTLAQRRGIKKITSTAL
Ribosomal protein S6 kinase beta-1, sequence (P23443 whole entry): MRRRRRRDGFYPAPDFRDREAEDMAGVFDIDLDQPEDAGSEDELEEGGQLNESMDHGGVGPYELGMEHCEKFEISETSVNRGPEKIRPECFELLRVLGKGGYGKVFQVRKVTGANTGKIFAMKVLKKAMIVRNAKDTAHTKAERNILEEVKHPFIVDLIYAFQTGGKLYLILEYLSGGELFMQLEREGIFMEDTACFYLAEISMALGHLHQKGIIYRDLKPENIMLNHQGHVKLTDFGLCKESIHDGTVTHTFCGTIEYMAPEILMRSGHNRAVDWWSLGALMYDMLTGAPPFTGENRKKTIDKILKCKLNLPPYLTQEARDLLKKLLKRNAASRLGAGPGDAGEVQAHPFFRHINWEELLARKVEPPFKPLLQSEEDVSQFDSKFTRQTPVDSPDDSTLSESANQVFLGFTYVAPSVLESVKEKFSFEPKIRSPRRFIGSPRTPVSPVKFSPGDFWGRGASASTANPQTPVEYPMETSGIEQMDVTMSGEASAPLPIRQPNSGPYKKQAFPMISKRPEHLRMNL
Tyrosine-protein kinase JAK1, sequence (P23458 whole entry): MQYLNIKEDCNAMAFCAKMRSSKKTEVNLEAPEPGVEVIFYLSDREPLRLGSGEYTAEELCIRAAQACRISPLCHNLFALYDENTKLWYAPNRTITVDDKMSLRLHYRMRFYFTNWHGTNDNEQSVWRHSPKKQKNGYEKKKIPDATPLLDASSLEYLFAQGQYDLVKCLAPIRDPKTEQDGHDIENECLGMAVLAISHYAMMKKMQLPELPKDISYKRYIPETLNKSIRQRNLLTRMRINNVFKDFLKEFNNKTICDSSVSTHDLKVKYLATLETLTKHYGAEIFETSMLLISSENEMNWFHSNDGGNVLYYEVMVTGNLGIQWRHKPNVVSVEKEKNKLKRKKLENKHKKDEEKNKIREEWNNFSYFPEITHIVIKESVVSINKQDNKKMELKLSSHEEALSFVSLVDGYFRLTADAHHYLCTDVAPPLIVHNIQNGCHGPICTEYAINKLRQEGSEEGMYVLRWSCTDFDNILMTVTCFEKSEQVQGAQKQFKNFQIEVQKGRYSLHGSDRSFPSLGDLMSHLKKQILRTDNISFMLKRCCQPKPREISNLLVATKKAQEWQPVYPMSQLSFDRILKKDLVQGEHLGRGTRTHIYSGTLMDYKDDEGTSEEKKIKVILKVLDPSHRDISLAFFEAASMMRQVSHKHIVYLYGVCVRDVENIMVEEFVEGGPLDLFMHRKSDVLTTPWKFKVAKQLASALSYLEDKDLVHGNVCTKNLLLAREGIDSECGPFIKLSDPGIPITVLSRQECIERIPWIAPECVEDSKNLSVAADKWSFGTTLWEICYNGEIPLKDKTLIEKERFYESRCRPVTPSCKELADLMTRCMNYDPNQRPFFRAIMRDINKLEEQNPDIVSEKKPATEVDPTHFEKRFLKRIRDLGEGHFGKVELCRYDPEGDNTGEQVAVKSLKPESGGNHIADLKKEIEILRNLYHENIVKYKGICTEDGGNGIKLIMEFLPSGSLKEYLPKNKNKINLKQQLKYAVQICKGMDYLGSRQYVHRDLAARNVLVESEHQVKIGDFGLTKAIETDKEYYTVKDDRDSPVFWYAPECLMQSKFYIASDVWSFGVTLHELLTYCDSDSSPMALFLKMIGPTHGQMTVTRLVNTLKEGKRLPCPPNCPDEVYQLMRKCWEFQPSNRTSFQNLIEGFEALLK
Fibroblast growth factor receptor 1, sequence (P11362 whole entry): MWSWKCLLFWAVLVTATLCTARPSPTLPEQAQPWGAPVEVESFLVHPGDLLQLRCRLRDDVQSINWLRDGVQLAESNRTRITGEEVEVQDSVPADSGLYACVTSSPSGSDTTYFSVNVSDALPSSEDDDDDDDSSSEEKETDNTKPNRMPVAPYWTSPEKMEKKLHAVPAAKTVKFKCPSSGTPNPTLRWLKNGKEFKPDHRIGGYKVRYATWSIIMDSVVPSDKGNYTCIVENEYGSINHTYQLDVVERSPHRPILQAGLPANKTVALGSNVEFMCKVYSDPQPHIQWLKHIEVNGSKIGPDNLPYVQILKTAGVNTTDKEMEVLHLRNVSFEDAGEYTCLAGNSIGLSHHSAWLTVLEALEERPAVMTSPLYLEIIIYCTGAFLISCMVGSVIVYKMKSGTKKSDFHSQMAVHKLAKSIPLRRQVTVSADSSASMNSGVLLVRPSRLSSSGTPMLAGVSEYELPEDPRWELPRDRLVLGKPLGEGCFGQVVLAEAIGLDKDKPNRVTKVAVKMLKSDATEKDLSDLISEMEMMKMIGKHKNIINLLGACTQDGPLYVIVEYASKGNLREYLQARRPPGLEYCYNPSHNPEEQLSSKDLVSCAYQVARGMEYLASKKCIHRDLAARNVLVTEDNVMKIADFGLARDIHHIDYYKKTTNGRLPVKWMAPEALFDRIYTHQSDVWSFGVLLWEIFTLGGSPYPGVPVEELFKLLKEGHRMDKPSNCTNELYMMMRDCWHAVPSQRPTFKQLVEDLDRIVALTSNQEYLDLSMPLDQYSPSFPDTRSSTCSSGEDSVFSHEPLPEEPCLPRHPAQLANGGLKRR

For the compound `Oc1c(F)cc(-c2cnc3[nH]ccc3c2-c2ccc(N3CCOCC3)cc2)cc1F`, the negative-log IC50 (pIC50) is 7.30 in [1] and 8.70 in [3]. The solubility in [2] was less than 0.22 µg/mL.

Take `Oc1c(F)cc(-c2cnccc2-c2ccc(N3CCOCC3)cc2)cc1F`: in [1], the pIC50 is 6.68.

With `CN1CCN(c2ccc(-c3c(-c4ccc(N)nc4)cnc4[nH]ccc34)cc2)CC1`, the pIC50 in series [1] is 5.14; in series [3], 6.09.

`CN1CCN(c2ccc(-c3c(-c4ccc(F)cc4)cnc4[nH]ccc34)cc2)CC1`: the pIC50 is less than 4.70 in series [1] and 5.72 in series [3].

Turning to `Oc1ccc(-c2cn[nH]c2-c2ccc(O)cc2)cc1`, the pIC50 in [1] is 5.55; in [3], 7.70.

In the case of `CN1CCN(c2ccc(-c3ccncc3-c3cc(F)c(O)c(F)c3)cc2)CC1`, in [1], the pIC50 was 6.47.

Regarding `COc1c(F)cc(-c2cnc3[nH]ccc3c2-c2ccc(N3CCN(C)CC3)cc2)cc1F`, the pIC50 in [1] is less than 4.70; in [3], 6.30.

`CN1CCN(c2ccc(-c3c(-c4cn[nH]c4)cnc4[nH]ccc34)cc2)CC1`: the pIC50 was 5.62 in series [1] and 6.62 in [3].

Take `CN1CCN(c2ccc(-c3c(-c4ccnc(F)c4)cnc4[nH]ccc34)cc2)CC1`: the pIC50 in [1] was less than 4.70; in series [3] it was 5.96.

`Cc1ccc(-c2c(-c3cc(F)c(O)c(F)c3)cnc3[nH]ccc23)cc1`: the pIC50 in [1] is 6.63; in series [3], 8.70.

As for `CN1CCN(c2ccc(-c3c(-c4cc(F)cc(F)c4)cnc4[nH]ccc34)cc2)CC1`, the pIC50 in series [1] is 5.22; in series [3], 7.42.

As to `CN1CCN(c2ccc(-c3c(-c4cc(F)c(O)c(F)c4)cnc4[nH]ccc34)cc2)CC1`, the pIC50 in [1] was 7.27; in series [4], more than 6.00; in series [6], 6.92; in series [7], more than 6.00; in series [8], more than 6.00; in series [9], more than 6.00. For the same compound, the pIC50 in series [10] is more than 6.00; in series [11], 6.92; in series [12], more than 6.00; in series [3] it was 9.52; in [13], more than 6.00. This compound also had a solubility in series [2] of 10.3 µg/mL (≈ 24.5 µM). For the same compound, the efflux ratio in series [5] is 0.8.

As to `CN1CCN(c2ccc(-c3c(-c4ccc(C(F)F)cc4)cnc4[nH]ccc34)cc2)CC1`, the pIC50 is 4.74 in [1] and 6.10 in series [3].
